Laboratory results as given in US20250275975A1, “Methods of Treating Neuropathies” (Athira Pharma, Inc., priority 2023, published 2025).

What was measured:
Type in all cases: in vivo, Sprague Dawley rats
STZ DNP rats [1] = test: Mechanical allodynia rescue assay (Von Frey paw withdrawal threshold), Example B1; set-up: key to Efficacy: rescue of mechanical allodynia behavior as measured by paw withdrawal threshold: NS indicates treatment did not significantly affect paw withdrawal threshold vs disease control.; + indicates p < 0.05 vs disease control.; ++ indicates p < 0.01 vs disease control.; +++ indicates p < 0.001 vs disease control; conditions: for Efficacy: rescue of mechanical allodynia behavior as measured by paw withdrawal threshold: study day 28 after 14 days of treatment, p vs disease control
Excerpt: Hyperglycemic rats consistently develop neuropathic pain-associated behaviors including mechanical allodynia. Allodynia refers to a type of neuropathic pain characterized by increased sensitivity to stimuli that are not normally painful. Mechanical allodynia is quantified in rats by determination of the force required to induce a withdrawal of the paw and is negatively associated with allodynia such that, the lower the force required to induce paw withdrawal, the greater the pain behavior.
(§1) A series of studies were performed to determine the ability of HGF/MET positive modulator compounds to reduce the mechanical allodynia pain behaviors in hyperglycemic rats. A single dose of STZ (55 mg/kg via intravenous (IV)) was administered to induce a Type I diabetic hyperglycemia in male Sprague Dawley rats. Hyperglycemia was confirmed 4 days after STZ administration, with blood glucose levels above 200 mg/dL considered successful model induction. 14 days after disease induction, test compound treatment was initiated and continued as daily compound administration over the remaining course of the study. Route and dose for each compound were determined by pharmacokinetic and distribution modelling. Control groups included animals with no diabetic induction (Sham control), animals with diabetes but treated only with formulation vehicle (DNP (diabetic peripheral neuropathy) control), and disease animals treated with pregabalin (30 mg/kg via PO), which is known to reduce neuropathic pain behaviors.
(§2) Changes to neuropathic pain behaviors were assessed after 14 days of compound treatment on study day 28. Mechanical allodynia was tested by placing each animal on an elevated wire grid and stimulating the plantar surface of the right rear paw with a series of filaments corresponding to increasing orders of force, reaching a maximum force of 60 grams (Aesthesio manual Von Frey filaments). The force of the filament that causes paw withdrawal was considered the paw withdrawal threshold in grams. Pain sensitivity in response to thermal hyperalgesia was determined by using hot plate method and represented as paw withdrawal latency (PWL). Rats were placed on the hot plate (52.5° C.), and the time taken to show the nocifensive behavior (either licking or jumping) of any of their paws was recorded. Statistical comparison of treatment groups to DNP control groups was performed by one-way ANOVA followed by Dunnett's multiple comparisons test.

STZ DNP rats [2] = test: Thermal hyperalgesia rescue assay (hot plate paw withdrawal latency), Example B1; set-up: key to Efficacy: rescue of thermal hyperalgesia behavior as measured by paw withdrawal latency: NS indicates treatment did not significantly affect paw withdrawal latency vs disease control.; + indicates p < 0.05 vs disease control.; ++ indicates p < 0.01 vs disease control.; +++ indicates p < 0.001 vs disease control; conditions: for Efficacy: rescue of thermal hyperalgesia behavior as measured by paw withdrawal latency: study day 28 after 14 days of treatment, hot plate 52.5° C., p vs disease control
Method: as §1, §2

[3] = system: rat model of STZ-induced DNP; test: Comparison of dosing schedules, thermal hyperalgesia (hot plate test), Example B2; set-up: key to Efficacy: rescue of thermal hyperalgesia behavior as measured by paw withdrawal latency: NS indicates treatment did not significantly affect paw withdrawal latency vs DNP control.; + indicates p < 0.05 vs DNP control.; ++ indicates p < 0.01 vs DNP control.; +++ indicates p < 0.001 vs DNP control; conditions: for Efficacy: rescue of thermal hyperalgesia behavior as measured by paw withdrawal latency: p vs DNP control
Method: (§3) An additional series of studies were performed to compare the ability of Compound 1a to reduce mechanical allodynia and thermal hyperalgesia pain behaviors in hyperglycemic rats dosed once or twice daily. Briefly, a single dose of STZ (55 mg/kg via intravenous (IV)) was administered to induce a Type I diabetic hyperglycemia in male Sprague Dawley rats. Hyperglycemia was confirmed 4 days after STZ administration, with blood glucose levels above 200 mg/dL considered successful model induction. Development of a painful phenotype was confirmed 14 days after STZ administration through assessments of both mechanical allodynia and thermal hyperalgesia. Starting 15 days after disease induction, Compound 1a (8 mg/kg) was orally administered once (QD) or twice (Q12h) daily from day 15 to day 41. Control groups included animals with no diabetic induction (Sham control) and animals with diabetes but treated only with formulation vehicle (DNP [diabetic peripheral neuropathy] control).
(§4) Mechanical allodynia and thermal hyperalgesia were assessed as described in Example B1. Briefly, on study days 21, 27, 35, and 41, mechanical allodynia and thermal hyperalgesia were assessed one-hour post-dose using von Frey filaments (1.4, 4, 10, 15, 26, 48, and 60 g) and the hot plate test (52.5° C.), respectively. Pain level was also measured on day 48 following a 7-day compound-free washout to evaluate the persistence of the effects of administration of Compound 1a.

[4] = system: rat model of STZ-induced DNP; test: Comparison of dosing schedules, mechanical allodynia (von Frey filaments), Example B2; set-up: key to Efficacy: rescue of mechanical allodynia behavior as measured by paw withdrawal threshold: NS indicates treatment did not significantly affect paw withdrawal threshold vs DNP control.; + indicates p < 0.05 vs DNP control.; ++ indicates p < 0.01 vs DNP control.; +++ indicates p < 0.001 vs DNP control; conditions: for Efficacy: rescue of mechanical allodynia behavior as measured by paw withdrawal threshold: p vs DNP control
Method: as §3, §4

[5] = 8 mg/kg PO Q12 h from day 15 to day 41, Day 21, one-hour post-dose
[6] = 8 mg/kg PO Q12 h from day 15 to day 41, Day 27, one-hour post-dose
[7] = 8 mg/kg PO Q12 h from day 15 to day 41, Day 48, after 7-day compound-free washout
[8] = 8 mg/kg PO QD from day 15 to day 41, Day 21, one-hour post-dose
[9] = 8 mg/kg PO QD from day 15 to day 41, Day 27, one-hour post-dose
[10] = 8 mg/kg PO QD from day 15 to day 41, Day 48, after 7-day compound-free washout
[11] = 8 mg/kg PO QD or Q12h, starting on day 27
[12] = day 48, after 7-day compound-free washout

SMILES: CCC(C)CN1CC2N(C(=O)c3ccc(C(F)(F)F)cc3)CCC(=O)N2[C@@H](C)C1=O (some centres unmarked) [Compound 1a]
- Efficacy: rescue of mechanical allodynia behavior as measured by paw withdrawal threshold (STZ DNP rats [1]; 0.05 mg/kg PO daily): NS
- Efficacy: rescue of mechanical allodynia behavior as measured by paw withdrawal threshold (STZ DNP rats [1]; 0.2 mg/kg PO daily): NS
- Efficacy: rescue of mechanical allodynia behavior as measured by paw withdrawal threshold (STZ DNP rats [1]; 2 mg/kg PO daily): +++ (+++ indicates p < 0.001 vs disease control.)
- Efficacy: rescue of mechanical allodynia behavior as measured by paw withdrawal threshold (STZ DNP rats [1]; 8 mg/kg PO daily): +++ (+++ indicates p < 0.001 vs disease control.)
- rescue of the mechanical allodynia behavior as measured by paw withdrawal threshold (STZ DNP rats [1]; STZ DNP rats): significant rescue
- Efficacy: rescue of thermal hyperalgesia behavior as measured by paw withdrawal latency (STZ DNP rats [2]; 0.05 mg/kg PO daily): NS
- Efficacy: rescue of thermal hyperalgesia behavior as measured by paw withdrawal latency (STZ DNP rats [2]; 0.2 mg/kg PO daily): NS
- Efficacy: rescue of thermal hyperalgesia behavior as measured by paw withdrawal latency (STZ DNP rats [2]; 2 mg/kg PO daily): +++ (+++ indicates p < 0.001 vs disease control.)
- Efficacy: rescue of thermal hyperalgesia behavior as measured by paw withdrawal latency (STZ DNP rats [2]; 8 mg/kg PO daily): +++ (+++ indicates p < 0.001 vs disease control.)
- rescue of thermal allodynia behavior as measured by paw withdrawal latency (STZ DNP rats [2]; STZ DNP rats): significant rescue
- Efficacy: rescue of thermal hyperalgesia behavior as measured by paw withdrawal latency [3, 5]: NS
- Efficacy: rescue of thermal hyperalgesia behavior as measured by paw withdrawal latency [3, 6]: + (+ indicates p < 0.05 vs DNP control.)
- Efficacy: rescue of thermal hyperalgesia behavior as measured by paw withdrawal latency [3, 7]: +++ (+++ indicates p < 0.001 vs DNP control.)
- Efficacy: rescue of thermal hyperalgesia behavior as measured by paw withdrawal latency [3, 8]: NS
- Efficacy: rescue of thermal hyperalgesia behavior as measured by paw withdrawal latency [3, 9]: + (+ indicates p < 0.05 vs DNP control.)
- Efficacy: rescue of thermal hyperalgesia behavior as measured by paw withdrawal latency [3, 10]: +++ (+++ indicates p < 0.001 vs DNP control.)
- reversal of the increase in pain-related behaviors, thermal allodynia [3, 11]: effectively reversed
- persistence of pain-reducing effects, thermal allodynia [3, 12]: sustained
- Efficacy: rescue of mechanical allodynia behavior as measured by paw withdrawal threshold [4, 5]: NS
- Efficacy: rescue of mechanical allodynia behavior as measured by paw withdrawal threshold [4, 6]: ++ (++ indicates p < 0.01 vs DNP control.)
- Efficacy: rescue of mechanical allodynia behavior as measured by paw withdrawal threshold [4, 7]: +++ (+++ indicates p < 0.001 vs DNP control.)
- Efficacy: rescue of mechanical allodynia behavior as measured by paw withdrawal threshold [4, 8]: NS
- Efficacy: rescue of mechanical allodynia behavior as measured by paw withdrawal threshold [4, 9]: ++ (++ indicates p < 0.01 vs DNP control.)
- Efficacy: rescue of mechanical allodynia behavior as measured by paw withdrawal threshold [4, 10]: NS
- reversal of the increase in pain-related behaviors, mechanical allodynia [4, 11]: effectively reversed
- persistence of pain-reducing effects, mechanical allodynia [4, 12]: sustained
